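Following 48 hours of exposure in 96-well plates, responses at five concentrations were used to interpolate endpoints linearly. GI50 is the concentration that inhibits growth by half.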 Active and inactive are the calls of the source. No stated cut-off is given here; in the data, active = GI50 up to about 1.1 µM and inactive = higher. Peptide text beside a SMILES is read from it. * marks the point of attachment. Boc = CC(C)(C)OC(=O)*; OBn = c1ccc(CO*)cc1
What was measured:
Test in all cases: NCI anticancer screen, dose series, 48 h
SK-MEL-28 = tested on: SK-MEL-28
A498 = tested on: A498
NCI-H23 = tested on: NCI-H23
ACHN = tested on: ACHN
HOP-62 = tested on: HOP-62
SNB-19 = tested on: SNB-19
IGROV-1 = tested on: IGROV-1
UO-31 = tested on: UO-31
NCI-H460 = tested on: NCI-H460
EKVX = tested on: EKVX
SNB-75 = tested on: SNB-75
COLO 205 = tested on: COLO 205
OVCAR-3 = tested on: OVCAR-3
CCRF-CEM = tested on: CCRF-CEM
SK-MEL-2 = tested on: SK-MEL-2
A549 = tested on: A549
SR = tested on: SR
MCF7 = tested on: MCF7
MDA-N = tested on: MDA-N
Hs-578T = tested on: Hs-578T

Compound	GI50 (SK-MEL-28)	GI50 (A498)	GI50 (NCI-H23)	GI50 (ACHN)	GI50 (HOP-62)	GI50 (SNB-19)	GI50 (IGROV-1)	GI50 (UO-31)	GI50 (NCI-H460)	GI50 (EKVX)	GI50 (SNB-75)	GI50 (COLO 205)	GI50 (OVCAR-3)	GI50 (CCRF-CEM)	GI50 (SK-MEL-2)	GI50 (A549)	GI50 (SR)	GI50 (MCF7)	GI50 (MDA-N)	GI50 (Hs-578T)
Cc1ccccc1-c1c(N)nc(NC#N)nc1C(=O)Nc1ccccc1	> 100 µM (inactive)	> 100 µM (inactive)	> 100 µM (inactive)	> 100 µM (inactive)	> 100 µM (inactive)	> 100 µM (inactive)	> 100 µM (inactive)	> 100 µM (inactive)	> 100 µM (inactive)	> 100 µM (inactive)	76.4 µM (inactive)	> 100 µM (inactive)	> 100 µM (inactive)	> 100 µM (inactive)	32.1 µM (inactive)	> 100 µM (inactive)	> 100 µM (inactive)			
O=C1NC(=S)N/C1=C\c1cccs1	> 100 µM (inactive)		> 100 µM (inactive)		> 100 µM (inactive)	> 100 µM (inactive)	> 100 µM (inactive)	> 100 µM (inactive)		> 100 µM (inactive)	> 100 µM (inactive)	> 100 µM (inactive)	> 100 µM (inactive)	> 100 µM (inactive)	> 100 µM (inactive)	> 100 µM (inactive)		> 100 µM (inactive)	> 100 µM (inactive)	> 100 µM (inactive)
N#CCCOc1cccc(C2(N3CCCCC3)CCCCC2)c1	> 100 µM (inactive)	> 100 µM (inactive)	> 100 µM (inactive)	> 100 µM (inactive)	> 100 µM (inactive)	> 100 µM (inactive)	> 100 µM (inactive)	> 100 µM (inactive)		> 100 µM (inactive)		> 100 µM (inactive)	> 100 µM (inactive)	> 100 µM (inactive)	> 100 µM (inactive)	> 100 µM (inactive)	> 100 µM (inactive)	> 100 µM (inactive)		> 100 µM (inactive)
Cc1c2n(c(=O)[nH]c1=O)C1OC(CO)C(O2)C1O (stereo unspecified)	> 100 µM (inactive)	23 µM (inactive)	> 100 µM (inactive)	> 100 µM (inactive)	> 100 µM (inactive)	> 100 µM (inactive)	> 100 µM (inactive)	> 100 µM (inactive)	> 100 µM (inactive)	> 100 µM (inactive)	> 100 µM (inactive)	> 100 µM (inactive)	> 100 µM (inactive)	> 100 µM (inactive)	> 100 µM (inactive)	> 100 µM (inactive)	> 100 µM (inactive)			
CC(C)(C)OC(=O)NCC(c1c[nH]c2ccc(Br)cc12)c1c[nH]c2ccc(Br)cc12	16.3 µM (inactive)	14.5 µM (inactive)	4.33 µM (inactive)	5.96 µM (inactive)	12.7 µM (inactive)	11.2 µM (inactive)	4.07 µM (inactive)	7.11 µM (inactive)		4.52 µM (inactive)		5 µM (inactive)	4.54 µM (inactive)	5.12 µM (inactive)	8.04 µM (inactive)	5.18 µM (inactive)		5.41 µM (inactive)	8.63 µM (inactive)	19.3 µM (inactive)
Clc1ccc(OCc2nnc3sc(SSc4nn5c(COc6ccc(Cl)cc6)nnc5s4)nn23)cc1	> 100 µM (inactive)		> 100 µM (inactive)	> 100 µM (inactive)	> 100 µM (inactive)	> 100 µM (inactive)	> 100 µM (inactive)	52 µM (inactive)	> 100 µM (inactive)	66.5 µM (inactive)	> 100 µM (inactive)	> 100 µM (inactive)			> 100 µM (inactive)	> 100 µM (inactive)				> 100 µM (inactive)
CC(NC(=O)C(NC(=O)OC(C)(C)C)C(C)C)C(=O)N1CCCC1C(=O)NCC(=O)NC(C(=O)NCC(=O)OCc1ccccc1)C(C)C (stereo unspecified) (Boc-VAPGVG-OBn; configuration not given here)	> 100 µM (inactive)	> 100 µM (inactive)	> 100 µM (inactive)	> 100 µM (inactive)	> 100 µM (inactive)	> 100 µM (inactive)	62.1 µM (inactive)	> 100 µM (inactive)	> 100 µM (inactive)	> 100 µM (inactive)	71.3 µM (inactive)	> 100 µM (inactive)	> 100 µM (inactive)	> 100 µM (inactive)	> 100 µM (inactive)		> 100 µM (inactive)	> 100 µM (inactive)	> 100 µM (inactive)	
CC1=C(c2ccc(C)cc2)NC(=S)C(C)C(c2ccc(C)cc2)=N1 (stereo unspecified)	47.1 µM (inactive)	26 µM (inactive)	37 µM (inactive)	50.2 µM (inactive)	85.7 µM (inactive)	> 100 µM (inactive)	> 100 µM (inactive)	40.5 µM (inactive)	> 100 µM (inactive)	56.6 µM (inactive)	> 100 µM (inactive)	> 100 µM (inactive)		27.2 µM (inactive)		81.5 µM (inactive)	> 10 µM (inactive)	42 µM (inactive)	83.9 µM (inactive)	
Cn1nc(-c2ccccc2)nc1[N+](=O)[O-]	> 10 µM (inactive)	> 10 µM (inactive)	> 10 µM (inactive)	> 10 µM (inactive)	> 10 µM (inactive)	> 10 µM (inactive)	> 10 µM (inactive)	> 10 µM (inactive)	> 10 µM (inactive)	> 10 µM (inactive)	> 10 µM (inactive)	> 10 µM (inactive)	> 10 µM (inactive)	> 10 µM (inactive)	> 10 µM (inactive)	> 10 µM (inactive)	> 10 µM (inactive)		> 10 µM (inactive)	> 10 µM (inactive)
Cc1ccc2c(C)c3ccc4ccccc4c3c[n+]2c1.[O-][Cl+3]([O-])([O-])[O-]	15.3 µM (inactive)	60 µM (inactive)	14.6 µM (inactive)	58.7 µM (inactive)	13.8 µM (inactive)	6.46 µM (inactive)	31.4 µM (inactive)	33.6 µM (inactive)	14.3 µM (inactive)	13.7 µM (inactive)	11.2 µM (inactive)	12.2 µM (inactive)	7.35 µM (inactive)	11.1 µM (inactive)	13.9 µM (inactive)	16.3 µM (inactive)	12 µM (inactive)			
[N-]=[N+]=C1N=CN=C1c1nc[nH]n1	76.7 µM (inactive)	20.2 µM (inactive)	34.1 µM (inactive)	39 µM (inactive)	35.7 µM (inactive)	80.2 µM (inactive)	29 µM (inactive)	19.6 µM (inactive)		40 µM (inactive)	32.3 µM (inactive)	45.1 µM (inactive)	32.2 µM (inactive)	3.98 µM (inactive)	94.8 µM (inactive)	> 100 µM (inactive)		81.1 µM (inactive)	41.9 µM (inactive)	
COc1cc(O)c2c(c1)C(=O)C1=C(C2=O)C(O)C[C@@](C)(O)C1 (stereo partly specified)	1.5 µM (inactive)	1.28 µM (inactive)	1.53 µM (inactive)	0.684 µM (active)	8.71 µM (inactive)	4.34 µM (inactive)	1.79 µM (inactive)	2.67 µM (inactive)	1.92 µM (inactive)	3.38 µM (inactive)	3.41 µM (inactive)	0.264 µM (active)	0.822 µM (active)	2.39 µM (inactive)	1.63 µM (inactive)	2.34 µM (inactive)	2.4 µM (inactive)			
N#Cc1ccc(/C=N/C23CC4CC(CC(C4)C2)C3)cc1	> 100 µM (inactive)	> 100 µM (inactive)	> 100 µM (inactive)	> 100 µM (inactive)	> 100 µM (inactive)	> 100 µM (inactive)	> 100 µM (inactive)	> 100 µM (inactive)	> 100 µM (inactive)	> 100 µM (inactive)	> 10 µM (inactive)	> 100 µM (inactive)	> 100 µM (inactive)	96.8 µM (inactive)	> 100 µM (inactive)	> 100 µM (inactive)	> 100 µM (inactive)			
COC(=O)C(/C(=N/N)C(=O)Nc1cc(Cl)ccc1Cl)c1nc2ccc([N+](=O)[O-])cc2nc1O (stereo unspecified)	> 100 µM (inactive)	58.5 µM (inactive)	> 100 µM (inactive)	39.1 µM (inactive)	> 100 µM (inactive)	> 100 µM (inactive)	> 100 µM (inactive)	40 µM (inactive)	> 100 µM (inactive)	72.8 µM (inactive)		> 100 µM (inactive)	> 100 µM (inactive)	25 µM (inactive)	> 100 µM (inactive)	> 100 µM (inactive)	> 100 µM (inactive)			
Cc1c(/N=N/c2ccc(Cl)cc2)c(C)n(C2OC(CO)C(O)C(O)C2O)c(=S)c1C#N (stereo unspecified)	23.4 µM (inactive)		30 µM (inactive)	19.6 µM (inactive)	18.1 µM (inactive)	> 100 µM (inactive)	15.1 µM (inactive)	23.4 µM (inactive)	25.8 µM (inactive)	21.8 µM (inactive)	28 µM (inactive)	19.3 µM (inactive)	12.8 µM (inactive)	18.5 µM (inactive)	14.7 µM (inactive)	22 µM (inactive)		28.6 µM (inactive)	21.6 µM (inactive)	10.7 µM (inactive)
Cc1ccc(/C=N/Nc2nc3ccccc3s2)s1	> 100 µM (inactive)		> 100 µM (inactive)	> 100 µM (inactive)	26.2 µM (inactive)	51.9 µM (inactive)	18.8 µM (inactive)	51.6 µM (inactive)		50.7 µM (inactive)	46.3 µM (inactive)	> 100 µM (inactive)	34.9 µM (inactive)	> 100 µM (inactive)	> 100 µM (inactive)	> 100 µM (inactive)		5.53 µM (inactive)	> 100 µM (inactive)	66.1 µM (inactive)

Source: ChEMBL document CHEMBL1201862, “PubChem BioAssay data set” (2004)
